The first experiment concerns the target T1, PDE4B (Homo sapiens, UniProt Q07343).
T1 construct: hexahistidine (His6) (N); made in house
Put plainly: coupled PDE/AK bioluminescent assay. The note with it: catalytic domain of PDE4B. In kind it is biochemical. From the text: Phosphodiesterases regulate the activity of the second messenger cyclic adenosine monophosphate (cAMP) by hydrolyzing cAMP to adenosine monophosphate (AMP). We developed a novel coupled PDE/AK bioluminescent high-throughput assay to measure the activity of phosphodiesterases. In the PDE/AK assay, the AMP produced from the hydrolysis of cAMP by phosphodiesterase is converted to adenosine diphosphate (ADP) by the phosphotransferase activity of adenylate kinase (also known as ADK or myokinase). Adenylate kinase will catalyze the conversion of 1 mole of AMP and 1 mole of ATP into 2 moles of ADP. Thus the conversion of AMP to ADP will result in the subsequent loss of ATP. The decrease in ATP concentration can be monitored as light output using luciferase in a reaction that requires ATP to produce light. The PDE/AK assay uses luciferase, which catalyzes the production of light from ATP present in the reaction mix. The amount of emitted light is inversely proportional to the level of AMP present in the reaction. Test compounds are incubated with the phosphodiesterases and phosphodiesterase inhibitors will decrease the rate of cAMP hydrolysis and decrease the subsequent production of AMP. Thus phosphodiesterase inhibitors will decrease the conversion of ATP to ADP and result in the greatest emission of light.
Compounds may be screened for functional potency in in vitro biochemical assays for their ability to inhibit the activity of phosphodiesterase (PDE) enzymes. A novel coupled PDE/AK assay was utilized to measure the inhibitory activity of compounds on PDE isoforms. The catalytic domain of PDE4B was fused to an amino-terminus hex-histidine affinity tag and purified. PDE4B enzyme was incubated with compounds for 10 minutes. Cyclic AMP substrate, ATP and adenylate kinase were then added to the PDE enzyme mix and incubated for 45 minutes at room temperature. A commercial ATP detection assay, Perkin Elmer's easyLite ATP detection reagent, was then added to measure the relative amount of ATP present in the reaction. After 10 minute incubation, the luminescent signal was quantitated with either the Perkin Elmer Viewlux or Molecular Devices Acquest or Analyst. Roflumilast and Rolipram are the positive controls used in the assay.
The PDE/AK assay can be performed with any cAMP dependent phosphodiesterase, and can be performed in 96-, 384-, or 1536-well plates. […] Specifically, the use of radioactive substrates in a phosphodiesterase activity assay requires special protocols for handling and waste disposal, and reduced throughput. Modified substrates add the additional complexity of potentially altering the binding to the phosphodiesterase catalytic site. Fluorescently modified substrates may cause fluorescence artifacts that may interfere in the interpretation of assay results. The use of beads that selectively bind to either the cAMP or AMP may cause an additional complexity in reagent handling. The use of antibodies that selectively bind to either cAMP or AMP can be extremely costly with a relatively small signal to noise ratio. Therefore, the novel PDE/AK assay represents a simple, cost-effective alternative to known methods.
T1 sequence (Q07343 330-659 limits assumed, species assumed): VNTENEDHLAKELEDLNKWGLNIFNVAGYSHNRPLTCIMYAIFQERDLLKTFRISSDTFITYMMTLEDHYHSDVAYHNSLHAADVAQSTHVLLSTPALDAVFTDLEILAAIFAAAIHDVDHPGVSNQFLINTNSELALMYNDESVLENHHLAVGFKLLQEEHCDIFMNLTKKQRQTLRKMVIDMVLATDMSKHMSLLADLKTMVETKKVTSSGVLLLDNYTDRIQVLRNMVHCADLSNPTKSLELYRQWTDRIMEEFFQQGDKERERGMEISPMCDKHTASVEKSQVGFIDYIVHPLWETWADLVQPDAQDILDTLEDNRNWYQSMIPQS
In the case of `COc1ccc2c(Nc3c(Cl)cccc3Cl)ncnc2c1OC1CCCC1` [Example 1, 8-(Cyclopentyloxy)-N-(2,6-dichlorophenyl)-7-methoxyquinazolin-4-amine], the IC50 (in general, the midpoint of a concentration-inhibition curve) was greater than 1 µM.

Compound `COc1ccc2c(Nc3c(Cl)cncc3Cl)ncnc2c1OC1CCCC1` [Example 2, 8-(Cyclopentyloxy)-N-(3,5-dichloropyridin-4-yl)-7-methoxyquinazolin-4-amine] returned an IC50 greater than 1 µM.

Consider `COc1ccc2c(Cc3c(Cl)cncc3Cl)ncnc2c1OC1CCCC1` [Example 3, 8-(Cyclopentyloxy)-4-[(3,5-dichloropyridin-4-yl)methyl]-7-methoxyquinazoline], for which the concentration for half-maximal inhibition (IC50) is no more than 1 µM.

For the compound `COc1ccc2c(Nc3c(Cl)cccc3Cl)ccnc2c1OC1CCCC1` [Example 4, 8-(Cyclopentyloxy)-N-(2,6-dichlorophenyl)-7-methoxyquinolin-4-amine], the IC50 was greater than 1 µM.

For the compound `COc1ccc2c(Nc3c(Cl)cncc3Cl)ccnc2c1OC1CCCC1` [Example 5, 8-(Cyclopentyloxy)-N-(3,5-dichloropyridin-4-yl)-7-methoxyquinolin-4-amine], the IC50 was greater than 1 µM.

Compound `COc1ccc2c(Cc3c(Cl)cncc3Cl)ccnc2c1OC1CCCC1` [Example 6, 8-(Cyclopentyloxy)-4-[(3,5-dichloropyridin-4-yl)methyl]-7-methoxyquinoline] displayed a half-inhibitory concentration (IC50) greater than 1 µM.

On to `COc1ccc2c(Nc3c(Cl)cccc3Cl)nccc2c1OC1CCCC1` [Example 7, 5-(Cyclopentyloxy)-N-(2,6-dichlorophenyl)-6-methoxyisoquinolin-1-amine], for which the half-maximal inhibitory concentration (IC50) is greater than 1 µM.

Consider `COc1ccc2c(Nc3c(Cl)cncc3Cl)nccc2c1OC1CCCC1` [Example 8], for which the IC50 is no more than 1 µM.

In turn, `COc1ccc2c(Cc3c(Cl)cncc3Cl)nccc2c1OC1CCCC1` [Example 9, 5-(Cyclopentyloxy)-1-[(3,5-dichloropyridin-4-yl)methyl]-6-methoxyisoquinoline] displayed an IC50 greater than 1 µM.

Compound `COc1ccc2c(Nc3c(Cl)cncc3Cl)coc2c1OC1CCCC1` [Example 10, 3,5-Dichloro-N-[7-(cyclopentyloxy)-6-methoxybenzofuran-3-yl]pyridine-4-amine] showed an IC50 greater than 1 µM.

The compound `COc1ccc2c(Nc3c(Cl)cccc3Cl)ccnc2c1OC` [Example 11, N-(2,6-Dichlorophenyl)-7,8-dimethoxyquinolin-4-amine] had an IC50 greater than 1 µM.

Consider `COc1ccc2c(NCc3c(Cl)cccc3Cl)coc2c1OC1CCCC1` [Example 12, 7-(Cyclopentyloxy)-N-(2,6-dichlorobenzyl)-6-methoxybenzofuran-3-amine], for which the IC50 is greater than 1 µM.

`COc1ccc2c(Nc3c(Cl)cnc(Cl)c3Cl)ccnc2c1OC1CCCC1` [Example 13, 8-(Cyclopentyloxy)-7-methoxy-N-(2,3,5-trichloropyridin-4-yl)quinolin-4-amine] gave a half-maximal inhibitory concentration (IC50) greater than 1 µM.

Regarding `COc1ccc2c(Nc3c(Cl)c(Cl)nc(Cl)c3Cl)ccnc2c1OC1CCCC1` [Example 14, 8-(Cyclopentyloxy)-7-methoxy-N-(perchloropyridin-4-yl)quinolin-4-amine], the IC50 was greater than 1 µM.

As to `COc1ccc2c(Nc3c(C)cncc3C)ccnc2c1OC1CCCC1` [Example 15, 8-(Cyclopentyloxy)-N-(3,5-dimethylpyridin-4-yl)-7-methoxyquinolin-4-amine], the IC50 was greater than 1 µM.

The compound `COc1ccc2c(Nc3c(Br)cncc3Br)ccnc2c1OC1CCCC1` [Example 16, 8-(Cyclopentyloxy)-N-(3,5-dibromopyridin-4-yl)-7-methoxyquinolin-4-amine] yielded an IC50 greater than 1 µM.

For the compound `COc1ccc2c(c1OC1CCCC1)OCCC2Nc1c(Cl)cncc1Cl` (stereo not shown) [Example 17, 3,5-Dichloro-N-(8-(cyclopentyloxy)-7-methoxychroman-4-yl)pyridin-4-amine], the 50% inhibitory concentration (IC50) is greater than 1 µM.

Take `COc1ccc2c(C(=O)Nc3c(Cl)cncc3Cl)coc2c1OC1CCCC1` [Example 18, 7-(Cyclopentyloxy)-N-(3,5-dichloropyridin-4-yl)-6-methoxybenzofuran-3-carboxamide]: the IC50 is greater than 1 µM.

With `COc1cc(Nc2c(Cl)cncc2Cl)c2ccc(OC)c(OC3CCCC3)c2n1` [Example 19, 8-(Cyclopentyloxy)-N-(3,5-dichloropyridin-4-yl)-2,7-dimethoxyquinolin-4-amine], the half-maximal inhibitory concentration (IC50) was no more than 1 µM.

Consider `CCOc1cc(Nc2c(Cl)cncc2Cl)c2ccc(OC)c(OC3CCCC3)c2n1` [Example 20, 8-(Cyclopentyloxy)-N-(3,5-dichloropyridin-4-yl)-2-ethoxy-7-methoxyquinolin-4-amine], for which the IC50 was no more than 1 µM.

On to `COc1ccc2c(Nc3c(Cl)cncc3Cl)cc(N(C)C)nc2c1OC1CCCC1` [Example 21, 8-(Cyclopentyloxy)-N4-(3,5-dichloropyridin-4-yl)-7-methoxy-N2,N2-dimethylquinoline-2,4-diamine], for which the 50% inhibitory concentration (IC50) was no more than 1 µM.

Take `CNc1cc(Nc2c(Cl)cncc2Cl)c2ccc(OC)c(OC3CCCC3)c2n1` [Example 22, 8-(Cyclopentyloxy)-N4-(3,5-dichloropyridin-4-yl)-7-methoxy-N2-methylquinoline-2,4-diamine]: the IC50 was no more than 1 µM.

With `COc1ccc2c(Nc3c(Cl)cncc3Cl)cc(N)nc2c1OC1CCCC1` [Example 23, 8-(Cyclopentyloxy)-N4-(3,5-dichloropyridin-4-yl)-7-methoxyquinoline-2,4-diamine], the IC50 is no more than 1 µM.

`COc1ccc2c(Nc3c(Cl)cncc3Cl)cc(Cl)nc2c1OC1CCCC1` [Example 24, 2-Chloro-8-(cyclopentyloxy)-N-(3,5-dichloropyridin-4-yl)-7-methoxyquinolin-4-amine] showed an IC50 of no more than 1 µM.

Compound `COc1ccc2c(Nc3c(Cl)cncc3Cl)c(Cl)c(OCCN(C)C)nc2c1OC1CCCC1` [Example 26, 3-Chloro-8-(cyclopentyloxy)-N-(3,5-dichloropyridin-4-yl)-2-(2-(dimethylamino)ethoxy)-7-methoxyquinolin-4-amine] returned a concentration for half-maximal inhibition (IC50) of no more than 1 µM.

`COc1ccc2c(Nc3c(Cl)cncc3Cl)cc(OCCO)nc2c1OC1CCCC1` [Example 27, 2-(8-(Cyclopentyloxy)-4-(3,5-dichloropyridin-4-ylamino)-7-methoxyquinolin-2-yloxy)ethanol] displayed a half-inhibitory concentration (IC50) of no more than 1 µM.

`COc1ccc2c(Nc3c(Cl)cncc3Cl)cc(OCCN3CCOCC3)nc2c1OC1CCCC1` [Example 28, 8-(Cyclopentyloxy)-N-(3,5-dichloropyridin-4-yl)-7-methoxy-2-(2-morpholinoethoxy)quinolin-4-amine] gave a half-inhibitory concentration (IC50) of no more than 1 µM.

For `COc1ccc2c(Nc3c(Cl)cncc3Cl)cc(OCCCN(C)C)nc2c1OC1CCCC1` [Example 29, 8-(Cyclopentyloxy)-N-(3,5-dichloropyridin-4-yl)-2-(3-(dimethylamino)propoxy)-7-methoxyquinolin-4-amine], the IC50 is no more than 1 µM.

In the next experiment the test system is dry eye (corneal staining, tear breakup time). Put plainly: Lacrimal gland inflammation-induced dry eye in rabbits. The format is in vivo. The note with it: 1 × 10^−2 percent concentration, topical ocular BID, rabbit ConA dry eye. The source says:
A more detailed description of the assay used herein may be found in Naglehout, T J et al. 2005, “Preservation of Tear Film Integrity and Inhibition of Corneal Injury by Dexamethasone in a Rabbit Model of Lacrimal Gland Inflammation-Induced Dry Eye,”J. Ocular Pharm. Ther., 21:2. 139-148, the disclosure of which is hereby incorporated by reference as if written herein in its entirety. Rabbits (n=4/group) were randomized into treatment groups and dosed topically BID with maxidex vehicle or test drug beginning one day prior to initiation of dry eye. Each rabbit received bilateral lacrimal gland injections of saline or ConA (300 μg/30 μl) and topical ocular dosing was continued BID throughout the study. Desiccation was initiated 1-2 hours following lacrimal gland injection by placing conscious rabbits in the environmental chamber (10-15% humidity/72° F.). Following 72 consecutive hours of exposure to this dry environment, the animals were anesthetized and sutures were placed in each upper and lower eyelid and lifted to form a corneal/conjunctival cup. Methylene blue dye (1 mL, 1% in dH2O) was added to the cup for three minutes and the excess removed by washing with 200 mL BSS®. The contralateral eye was then stained using the same procedure. Rabbits were euthanized immediately following the staining procedure and the eyes were excised. The corneas were isolated with a trephine and the 9.5-mm punch of the cornea was placed in 2 mL acetone/saturated sodium sulfate (7:3, vol./vol.). Absorbance of the extracted dye was determined at 660 nm. TBUT was quantified in a separate group of treated animals. TBUT was determined by instilling 5 μL sodium fluorescein into the cul de sac and manually blinking the lids to distribute the fluorescein within the tear film. Under slit lamp observation, the eye was held open and the time whereby one or more black spots or streaks appeared in the precorneal tear film was recorded. The rabbits were euthanized 3 days following ConA inj ection.
Consider `COc1ccc2c(Nc3c(Cl)cncc3Cl)cc(N)nc2c1OC1CCCC1` [Example 23, 8-(Cyclopentyloxy)-N4-(3,5-dichloropyridin-4-yl)-7-methoxyquinoline-2,4-diamine], for which the “Activity at Percent Concentration Tested” value is listed as “Inactive”.

The same experiment, now with this note: 1 × 10^−4 percent concentration, topical ocular BID, rabbit ConA dry eye.
On to `COc1ccc2c(Nc3c(Cl)cncc3Cl)cc(N)nc2c1OC1CCCC1` [Example 23, 8-(Cyclopentyloxy)-N4-(3,5-dichloropyridin-4-yl)-7-methoxyquinoline-2,4-diamine], for which the “Activity at Percent Concentration Tested” value is recorded as “Inactive”.

Still in this experiment, the particulars now being: 1 × 10^−6 percent concentration, topical ocular BID, rabbit ConA dry eye.
For the compound `COc1ccc2c(Nc3c(Cl)cncc3Cl)cc(N)nc2c1OC1CCCC1` [Example 23, 8-(Cyclopentyloxy)-N4-(3,5-dichloropyridin-4-yl)-7-methoxyquinoline-2,4-diamine], the “Activity at Percent Concentration Tested” value is given as “Inactive”.
